Laboratory results taken from US12371748B2, “Genetic markers for predicting responsiveness to therapy with HDL-raising or HDL mimicking agent” (Hoffmann-La Roche Inc., priority 2014, dated 2025).

System: patients with evidence of coronary artery disease
Test: dal-PLAQUE-2: change in carotid intima-media thickness (B-mode ultrasound) by ADCY9 genotype
Assay type: in vivo, human
Text: The dal-PLAQUE-2 study (Tardif J C et al, Circulation Cardiovascular imaging 2011; 4:319-33) was a phase 3b multicenter, double-blind, randomized, placebo-controlled, parallel group trial designed to evaluate the effect of dalcetrapib on atherosclerotic disease progression in patients with evidence of coronary artery disease and carotid intima media thickness of at least 0.65 mm in the far wall of the common carotid arteries, as assessed by B-mode ultrasonography. A total of 931 patients were randomized to receive dalcetrapib 600 mg daily or matching placebo with intended treatment duration of 24 months. However, the trial was terminated prematurely concurrent with the termination of dal OUTCOMES (the latter due to futility). Patients continued study medication until they returned for follow-up carotid imaging at 12 months. Carotid B-mode ultrasound recordings at baseline, month 6, and month 12 were analyzed centrally at the core laboratory of the Montreal Heart Institute. Intima-media thickness (IMT) was analyzed on the far wall of the common carotid arteries. A segment of 10 mm in length of the common carotid artery was analyzed on serial examinations using an automated edge detection software (Carotid Analyzer, Medical Imaging Applications, Coralville, Iowa). Among the 411 participants in the dal-PLAQUE-2 trial who consented to the genetic study, 386 had imaging measures at baseline, 6 months and 12 months (194 and 192 in the dalcetrapib and placebo arms respectively). DNA was extracted from whole blood. The research protocols were approved by the relevant institutional review boards or ethics committees and all human participants gave written informed consent.
All acquired carotid ultrasound recordings were analyzed at the core laboratory of the Montreal Heart Institute by experienced technicians supervised by a physician. Images were required to meet quality and inclusion and exclusion criteria for eligibility prior to random assignment to study treatment. The methods for carotid intima-media thickness analysis included side-by-side viewing of baseline and follow-up studies.
Carotid arterial wall segments were assessed in a longitudinal view, perpendicular to the ultrasound beam, with a horizontal display of the arterial image in order to view the interfaces between blood and vascular structures on the longest possible segment. The localization of the end of the common carotid artery was used as the landmark in repositioning and analyzing comparative length of segments in baseline and follow-up studies. Intima-media thickness was analyzed on the far wall of the right and left common carotid arteries, to reduce variability of measurements. The average of the mean intima-media thickness values of the right and left common carotid arteries was used. A matched segment of 10 mm in length of the common carotid artery was analyzed on serial examinations (baseline, 6 months and 12 months), starting 5 mm proximal to the carotid bifurcation. The edge detection software Carotid Analyzer (Medical Imaging Applications LLC, Coralville, Iowa) was used to analyze intima-media thickness using the automated option. Two sets of carotid artery borders were identified: First, the media-adventitia borders were determined and verified by the reader. When required, their locations were semi-automatically modified to the correct location. When these borders were approved, the lumen-intima boundaries were automatically detected using the media-adventitia borders for guidance. Frames from looped sequences of intima-media thickness were selected for reading, and poor quality outlier frames were removed from the analysis when required.
For the dal-Plaque-2 population, mixed regression models for repeated measures analysis were tested in SAS software. The dal-Plaque-2 tested endpoint was the mean of IMT measures of common carotid arteries at the 6-month and the 12-month visits, using the baseline measure as covariate. […]

CCC(CC)CC1(C(=O)Nc2ccccc2SC(=O)C(C)C)CCCCC1 [dalcetrapib, thioisobutyric acid S-(2-{[1-(2-ethyl-butyl)-cyclohexanecarbonyl]-amino}-phenyl) ester]
Change from baseline in carotid intima-media thickness, Mean (rs8061182, homozygotes for minor allele, M12): −0.001 mm
Change from baseline in carotid intima-media thickness, Mean (rs11647778, heterozygotes, M06): −0.002 mm
Change from baseline in carotid intima-media thickness, Mean (rs11647778, heterozygotes, M12): 0.001 mm
Change from baseline in carotid intima-media thickness, Mean (rs11647778, homozygotes for major allele, M06): 0.011 mm
Change from baseline in carotid intima-media thickness, Mean (rs11647778, homozygotes for major allele, M12): 0.008 mm
Change from baseline in carotid intima-media thickness, Mean (rs11647778, homozygotes for minor allele, M06): −0.013 mm
Change from baseline in carotid intima-media thickness, Mean (rs11647778, homozygotes for minor allele, M12): −0.026 mm
Change from baseline in carotid intima-media thickness, Mean (rs11647828, heterozygotes, M06): −0.002 mm
Change from baseline in carotid intima-media thickness, Mean (rs11647828, heterozygotes, M12): −0.003 mm
Change from baseline in carotid intima-media thickness, Mean (rs11647828, homozygotes for major allele, M06): 0.011 mm
Change from baseline in carotid intima-media thickness, Mean (rs11647828, homozygotes for major allele, M12): 0.009 mm
Change from baseline in carotid intima-media thickness, Mean (rs11647828, homozygotes for minor allele, M06): −0.018 mm
Change from baseline in carotid intima-media thickness, Mean (rs11647828, homozygotes for minor allele, M12): −0.020 mm
Change from baseline in carotid intima-media thickness, Mean (rs12595857, heterozygotes, M06): −0.003 mm
Change from baseline in carotid intima-media thickness, Mean (rs12595857, heterozygotes, M12): −0.002 mm
Change from baseline in carotid intima-media thickness, Mean (rs12595857, homozygotes for major allele, M06): 0.011 mm
Change from baseline in carotid intima-media thickness, Mean (rs12595857, homozygotes for major allele, M12): 0.010 mm
Change from baseline in carotid intima-media thickness, Mean (rs12595857, homozygotes for minor allele, M06): −0.008 mm
Change from baseline in carotid intima-media thickness, Mean (rs12595857, homozygotes for minor allele, M12): −0.018 mm
Change from baseline in carotid intima-media thickness, Mean (rs12599911, heterozygotes, M06): −0.003 mm
Change from baseline in carotid intima-media thickness, Mean (rs12599911, heterozygotes, M12): −0.002 mm
Change from baseline in carotid intima-media thickness, Mean (rs12599911, homozygotes for major allele, M06): 0.011 mm
Change from baseline in carotid intima-media thickness, Mean (rs12599911, homozygotes for major allele, M12): 0.010 mm
Change from baseline in carotid intima-media thickness, Mean (rs12599911, homozygotes for minor allele, M06): −0.008 mm
Change from baseline in carotid intima-media thickness, Mean (rs12599911, homozygotes for minor allele, M12): −0.019 mm
Change from baseline in carotid intima-media thickness, Mean (rs12920508, heterozygotes, M06): −0.003 mm
Change from baseline in carotid intima-media thickness, Mean (rs12920508, heterozygotes, M12): −0.001 mm
Change from baseline in carotid intima-media thickness, Mean (rs12920508, homozygotes for major allele, M06): 0.006 mm
Change from baseline in carotid intima-media thickness, Mean (rs12920508, homozygotes for major allele, M12): 0.005 mm
Change from baseline in carotid intima-media thickness, Mean (rs12920508, homozygotes for minor allele, M06): −0.005 mm
Change from baseline in carotid intima-media thickness, Mean (rs12920508, homozygotes for minor allele, M12): −0.021 mm
Change from baseline in carotid intima-media thickness, Mean (rs12935810, heterozygotes, M06): −0.003 mm
Change from baseline in carotid intima-media thickness, Mean (rs12935810, heterozygotes, M12): −0.001 mm
Change from baseline in carotid intima-media thickness, Mean (rs12935810, homozygotes for major allele, M06): −0.006 mm
Change from baseline in carotid intima-media thickness, Mean (rs12935810, homozygotes for major allele, M12): −0.007 mm
Change from baseline in carotid intima-media thickness, Mean (rs12935810, homozygotes for minor allele, M06): 0.021 mm
Change from baseline in carotid intima-media thickness, Mean (rs12935810, homozygotes for minor allele, M12): 0.010 mm
Change from baseline in carotid intima-media thickness, Mean (rs13337675, heterozygotes, M06): 0.002 mm
Change from baseline in carotid intima-media thickness, Mean (rs13337675, heterozygotes, M12): 0.005 mm
Change from baseline in carotid intima-media thickness, Mean (rs13337675, homozygotes for minor allele, M06): 0.016 mm
Change from baseline in carotid intima-media thickness, Mean (rs13337675, homozygotes for minor allele, M12): −0.011 mm
Change from baseline in carotid intima-media thickness, Mean (rs17136707, heterozygotes, M06): −0.006 mm
Change from baseline in carotid intima-media thickness, Mean (rs17136707, heterozygotes, M12): −0.004 mm
Change from baseline in carotid intima-media thickness, Mean (rs17136707, homozygotes for minor allele, M06): −0.015 mm
Change from baseline in carotid intima-media thickness, Mean (rs17136707, homozygotes for minor allele, M12): −0.008 mm
Change from baseline in carotid intima-media thickness, Mean (rs74702385, heterozygotes, M06): −0.006 mm
Change from baseline in carotid intima-media thickness, Mean (rs74702385, heterozygotes, M12): −0.002 mm
Change from baseline in carotid intima-media thickness, Mean (rs74702385, homozygotes for minor allele, M06): −0.015 mm
Change from baseline in carotid intima-media thickness, Mean (rs74702385, homozygotes for minor allele, M12): −0.008 mm
Change from baseline in carotid intima-media thickness, Mean (rs111590482, heterozygotes, M06): −0.006 mm
Change from baseline in carotid intima-media thickness, Mean (rs111590482, heterozygotes, M12): −0.002 mm
Change from baseline in carotid intima-media thickness, Mean (rs111590482, homozygotes for minor allele, M06): −0.015 mm
Change from baseline in carotid intima-media thickness, Mean (rs111590482, homozygotes for minor allele, M12): −0.008 mm
